In patent US11814405B2, “Pyridine sulfonamide phosphate compound, preparation method therefor, and use thereof” (Shanghai Xunhe Pharmaceutical Technology Co. Ltd., priority 2019, dated 2023):
Entries after “also recorded” stand apart in the source; their conditions may differ.

How the values were obtained:
Male SD rats = assay: Comparison of diuretic effects: urine output in saline-loaded rats; format: in vivo, rat; conditions: 10 mg/kg, ig, after 30 mL/kg normal saline, urine collected for 4 h
Description: Male SD rats (body weight: 180±20 g) were randomly divided into 14 groups with 3 rats in each group. Each rat was administrated 30 mL/kg normal saline through intragastric administration. After intragastric administration of normal saline, except the blank control group, each group was administrated one drug (10 mg/kg, ig, 1 mg/mL, formulation prescription: normal saline dissolution). Urination for 4 h was collected.

[1] = cited from earlier work
[2] = active metabolite in vivo, compared with torsemide (Drugs 41 (1): 81-103, 1991); cited from earlier work
[3] = Comparison of water solubility; conditions: for Phenomenon: at the API:water ratio given

Phenomenon [3]	Conclusion (water solubility) [3]	Structure (SMILES)	Urine output (Male SD rats) [mL/kg]	solubility in water [1]	pharmacological activity [2]	solubility in 0.1 mol/L sodium hydroxide solution ([1]; 0.1 mol/L sodium hydroxide solution)
Completely dissolved	Slightly soluble	Cc1cc(Nc2ccncc2S(=O)(=O)NC(=O)NC(C)C)ccc1O [Compound M3]	107.2	has not been effectively improved	comparable to torsemide	–
Completely dissolved	Very slightly	Cc1cccc(Nc2ccncc2S(=O)(=O)NC(=O)NC(C)C)c1 [Torsemide, 1-[4-(3-methylphenyl)aminopyridin-3-yl]sulfonyl-3-isopropylurea]	105.3	almost insoluble in water; also recorded: very slightly soluble in water	–	slightly soluble
